Data: patent US8481494B2, “Compounds for the treatment of diseases related to protein misfolding” (priority 2009, dated 2013)
Converted amounts (≈) assume the structure as drawn. Where two headings read alike, the source gives them in different places. Values belong to the compound of their own block, whether it stands above or below them. *1 amine or outer side, *2 acyl side, *3 side chain or, on linkers, in order; H or OH if unused. Where a SMILES comes first, the peptide text is derived from it. [ ]: non-standard residue; d: D form. The star is where a group is joined. X1 = O=C(c1cc([N+](=O)[O-])n[nH]1)*; X2 = O=C(c1cc(N[*:1])n[nH]1)[*:2]; AEEEA = NCCOCCOCCOCC(=O)O

Legend:
[1] = biological target: T1, preformed Aβ(1-42) fibrils (Homo sapiens, UniProt P05067); test: ThT equilibrium disaggregation assay of preformed fibrils; type: biochemical; details: 33 μM Aβ42 preformed fibrils, 198 μM ligand, 10 mM PBS pH 7.3
T1 construct: Aβ(1-42)-peptide (Bachem, Bubendorf, Germany) was prepared in HFIP; purchased Bachem, Bubendorf
Description: Starting from preformed fibrils, the disassembly process was also monitored with the full series of modified trimeric aminopyrazoles. […] In other words, little difference is observed between the end points of aggregation assays, in which the ligand inhibits de novo aggregation starting from monomeric Aβ molecules, and those experiments, which require disaggregation of preformed fibrils by externally added ligand. Experimental evidence is thus provided for the fact, that aminopyrazole ligands operate in a fully reversible fashion, and reach an open equilibrium when the thermodynamically most favorable complex is formed.
(§1) Thioflavin T (ThT) measurements were carried out in a 384-well plate (Nunc GmbH, Wiesbaden, Germany) in an InfiniTe 200 plate reader (Tecan GmbH, Crailsheim, Germany). Fluorescence intensity was measured at 37° C., 446 nm excitation wavelength (bandwidth 9 nm) and 490 nm emission wavelength with a bandwidth of 20 nm. Each data point was averaged over 40 lamp flashes. Each measurement cycle was started by shaking the sample carrier orbitally for 30 s at medium intensity to avoid settling of larger aggregates. The 384-well plate was covered with a transparent and DMSO-stable film (Nunc GmbH, Wiesbaden, Germany). Each single sample was composed of 33 μM Aβ(1-40) or rather Aβ(1-42) in 10 mM PBS (phosphate buffered saline), 10.7% DMSO, 10 μM ThT and 198 μM of the test compound. For graph representation emission values of fourfold samples were averaged. Each test compound was measured separately, both in 10 mM PBS and 10 mM PBS with ThT to exclude any potential interactions between ligand and ThT.
After that, 9.5 μL ThT (62.7 μM stock solution) was pipetted and the assay solution was briefly centrifugated. The ThT fluorescence was measured at λEx=446 nm and λEm=490 nm. For graph representation emission values of fourfold samples were averaged.

Aβ(1-42) = biological target: T2, Aβ(1-42) (Homo sapiens, UniProt P05067); test: ThT equilibrium inhibition assay of Aβ aggregation; type: biochemical; details: for ThT fluorescence level, inhibition of aggregation: 33 μM Aβ42, 198 μM ligand, 10 mM PBS pH 7.3, 72 h
T2 construct: Aβ(1-42)-peptide (Bachem, Bubendorf, Germany) was prepared in HFIP; purchased Bachem, Bubendorf
Procedure: After 72 h, the aggregation process has reached a maximum in the absence or presence of any trimeric ligand, even for the slow Aβ (1-40) peptide. The respective equilibrium concentration is then indicated by the relative fluorescence intensity reached at the end point. The full series of new aminopyrazole trimer derivatives was subjected to ThT inhibition experiments and the final equilibrium was analyzed by comparison of the respective fluorescence intensities of intercalated dye at 482 nm (exc. at 442 nm). […] Their proposed mechanism of action is discussed within the next chapters together with all the other biophysical, biochemical as well as modeling data.
as §1
The ThT assay solution was briefly centrifugated and it was pipetted in a 384-well plate. The ThT fluorescence was measured at λEx=446 nm and λEm=490 nm. Each point is the average of quadruplication.

[2] = Solubility of the unprotected aminopyrazole trimers (stock solutions); details: water (class a) or DMSO (class b)
Procedure: The ligands were dissolved in 100% DMSO as 4.95 mM stock solutions and were stored at −20° C.

[3] = Sedimentation of the pure ligand (self-association); type: physicochemical; details: ligand itself
Procedure: (§2) In a standard FCS experiment a 5 nM Oregon-Green-labeled Aβ solution was prepared in PBS buffer with ˜3% DMSO. […] This is not surprising, because it comprises a flat arrangement of unpolar aromatics adorned with polar groups for extensive hydrogen bonding. Finally, TEM pictures were obtained from mature Aβ fibrils ([…]) as well as globular particles (3-30 nm) grown in the absence of aminopyrazole ligands.
Such an arrangement may also result in far-reaching conformational effects, indicated already be widening of the upper U-turn; these are now proposed to destroy the existing β-sheet (FIG. 12). The high positive charge of all five lysine residues requires the use of PBS with its high ionic strength for sedimentation experiments. […] Admittedly, their structures are somewhat reminiscent of the amphiphilic hybrid peptides (e.g., KLVFF-EEEEE) presented in the nineties for aggregation prevention by surface tension increase. […]
(§3) Sedimentation velocity centrifugation was performed in an XLA (BeckmanCoulter, Palo Alto, USA) equipped with absorption optics and a four hole titanium rotor. […] Radial scans were recorded at a resolution of 0.002 cm. Detection wavelength was chosen at 493 nm to observe endlabeled FITC or Oregon Green™ and to avoid background absorbance from the test compound.

Oregon-Green-labeled Aβ = biological target: T3, Oregon-Green-labeled Aβ (Homo sapiens, UniProt P05067); test: Sedimentation analysis (analytical ultracentrifugation) of Aβ with ligand; type: binding
T3 construct: aggregation mixtures of Aβ(1-42)/Aβ42-OG (17.5 nM/3.5 μM) in 10 mM NaPi, pH 7.4
Procedure: as §2
FIG. 6A to 6F show the results of sedimentation velocity centrifugation: s-value-distributions of Aβ samples in the presence of Trimer-OH (FIG. 6A, FIG. 6B, FIG. 6C) vs. Trim-TEG-OEt (FIG. 6D, FIG. 6E, FIG. 6F). […] FIG. 6B, FIG. 6E: s-value distributions of the control experiments as determined by 2D-SA and Monte Carlo analysis. FIG. 6C, FIG. 6F: s-value distributions of experiments with 200 μM Trimer derivative after 5 d of incubation as determined by 2D-SA and Monte Carlo analysis.
as §3
Sedimentation data were analyzed with UltraScan 9.4 (http://www.ultrascan.uthscsa.edu). […]

[4] = system: differentiated rat pheochromocytoma (PC-12) cells; test: cells
Procedure: Next, to examine whether the aminopyrazole trimers could protect cell from Aβ42-induced neurotoxicity, cells were treated for […] with 10 μM Aβ(1-42), a concentration that produces 30 to 40% decrease in cell viability, in the absence or presence of 100 μM of each compound. The viability of the cells then was assessed using the MTT assay.
MTT viability assays. Cell viability assays were performed as described in Fradinger et al. (Fradinger et al., PNAS, 2008). Rat pheochromocytoma (PC-12) cells were maintained in F-12 nutrient mixture with Kaighn's modification (F-12K) (Gibco BRL, Carlsbad, Calif.) with 15% heat-inactivated horse serum and 2.5% FBS at 37° C. in an atmosphere of 5% CO2. For cell viability assays, cells were plated in 96-well plates at a density of 25,000 cells per well in differentiation media (F-12K, 0.5% FBS, […] nerve growth factor) and maintained for 48 h. Aβ42 was solubilized in a minimal amount of DMSO (Sigma) and then diluted in the F-12K media in the absence or presence of the compounds and then added to cells and incubated for 48 h at 37° C. The final Aβ42 concentration was always kept constant at 10 μM. The stock solutions of the compounds were prepared at 10 mM in DMSO and diluted in the F-12K media at the required concentration. Negative controls included DMSO at the same concentration as in the peptide solutions and media alone. A positive control was […] staurosporine as lethal dose which represented 100% reduction in cell viability, based on which the percentage viability of all of the experimental conditions was calculated. Cell viability was assessed quantitatively by the CellTiter 96 Non-Radioactive Cell Proliferation Assay (Promega). Briefly, 15 μl of 3-(4,5-dimethylthiazol-2-yl)-2,5-diphenyltetra-zolium bromide (MTT) dye solution was incubated with the cells for 3 h. Then 100 μl of solubilization/stop solution was added and the plates were incubated overnight in the dark to ensure complete solubilization. Plates were read by using a Synergy HT microplate reader (BioTek), and the absorbance at 570 nm (formazan product) minus the absorbance at 630 nm (background) was recorded. Corrected absorbance was used to calculate the percent cell viability from the experimental change (Amedia-Aexperimental) over the dynamic range (Amedia-Astaurosporine). At least three independent experiments with six replicates (n≧18) were carried out, and the results were averaged.
To determine the IC50 value of each of the compounds, dose-dependence MTT experiments with the compounds were conducted. Aβ42 was used at 10 μM and the compounds were used at 100, 30, 10, 3, 1 and 0.3 μM. Three independent experiments with six replicates (n≧18) were carried out, and results were averaged. The data for each compound was fitted to the following equation to get the IC50 values. y=Bottom+((Top−Bottom)/(1+10^(x-log(IC^50^))))
Top: the y value at which the top of the sigmoidal curve becomes parallel to the X-axis; Bottom: the y value at which the bottom of the sigmoidal curve becomes parallel to the X-axis.
Also, MTT viability assays were run with differentiated PC-12 cells.

T2 sequence (P05067 672-713 limits assumed): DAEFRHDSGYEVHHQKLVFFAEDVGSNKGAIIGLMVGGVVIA
T3 sequence (P05067 672-713 limits assumed): as above
T3 sequence (P05067 672-713 limits assumed): as above
T1 sequence (P05067 672-713 limits assumed): as above

solubility: > 4.95 mM | ThT fluorescence level, disaggregation [1]: 20% | ThT fluorescence level, inhibition of aggregation (Aβ(1-42)): 20%
Structure (SMILES): NCCCC[C@H](NC(=O)c1cc(NC(=O)c2cc(NC(=O)c3cc([N+](=O)[O-])n[nH]3)n[nH]2)n[nH]1)C(=O)N[C@@H](CCCCN)C(=O)N[C@@H](CCCCN)C(=O)N[C@@H](CCCCN)C(=O)N[C@@H](CCCCN)C(=O)NCC(=O)O [Trimer-KKKKKG-OH, 3-(3-(3-nitro-1H-pyrazole-5-carboxamido)-1H-pyrazole-5-carboxamido)-1H-pyrazole-5-carboxamido-(S)-lysinyl-(S)-lysinyl-(S)-lysinyl-(S)-lysinyl-(S)-lysinyl-(S)-glycine] (X1-[X2][X2]KKKKKG-OH)

solubility [2]: 0.2 to 4.95 mM (≈ 75.1 to 1860 µg/mL) | size of micelles formed by self-association of the ligand [3]: ~10 S | molecular weight reduction of Aβ aggregates (Oregon-Green-labeled Aβ; corresponding to decrease to 25 S): 50% | sedimentation coefficient of Aβ complex with ligand (Oregon-Green-labeled Aβ; dose-dependent decrease, pure Aβ above 50 S): 25 S
Structure (SMILES): O=C(O)c1cc(NC(=O)c2cc(NC(=O)c3cc([N+](=O)[O-])n[nH]3)n[nH]2)n[nH]1 [Trimer-OH, 3-(3-(3-Nitro-1H-pyrazole-5-carboxamido)-1H-pyrazole-5-carboxamido)-1H-pyrazole-5-carboxylic acid]

solubility: 0.2 to 4.95 mM (≈ 240 to 5940 µg/mL) | IC50 [4]: > 100 µM
Structure (SMILES): CC(C)C[C@H](NC(=O)[C@H](CCCCN)NC(=O)COCCOCCOCCNC(=O)c1cc(NC(=O)c2cc(NC(=O)c3cc([N+](=O)[O-])n[nH]3)n[nH]2)n[nH]1)C(=O)N[C@H](C(=O)N[C@@H](Cc1ccccc1)C(=O)N[C@@H](Cc1ccccc1)C(=O)O)C(C)C [Trimer-TEG-KLVFF-OH, 1-(3-(3-(3-Nitro-1H-pyrazole-5-carboxamido)-1H-pyrazole-5-carbox-amido)-1H-pyrazol-5-yl)-1-oxo-5,8,11-trioxa-2-azatridecan-13-carboxamido-(S)-lysinyl-(S)-leucinyl-(S)-valinyl-(S)-phenylalaninyl-(S)-phenylalanine] (X1-[X2][X2][AEEEA]KLVFF-OH)

Structure (SMILES): COC(=O)C(CCCCN)NC(=O)COCCOCCOCCNC(=O)c1cc(NC(=O)c2cc(NC(=O)c3cc([N+](=O)[O-])n[nH]3)n[nH]2)n[nH]1.O=C(O)C(F)(F)F (centres unmarked) [Trimer-TEG-Lys-OMe, Trifluoro-acetate5-methoxycarbonyl-5-(2-{2-[2-(2-{[5-({5-[(5-nitro-2H-pyrazole-3-carbonyl)-amino]-2H-pyrazole-3-carbonyl}-amino)-2H-pyrazole-3-carbonyl]-amino}-ethoxy)-ethoxy]ethoxy}-acetylamino)-pentyl-ammonium]
viability increase (rescue from Aβ toxicity) ([4]; PC-12 cells, 10 μM Aβ(1-42), 100 μM compound): > 40% | IC50 ([4]; read-out: IC50 of inhibition of Aβ-induced toxicity, PC-12 cells, MTT, Aβ42 10 μM, ligand 0.3-100 μM): 52.7 µM | ThT fluorescence level, disaggregation [1]: 20% | ThT fluorescence level, inhibition of aggregation (Aβ(1-42)): 20% | ThT values compared with the original trimer (Aβ(1-42); Aβ(1-42), in words): surpass the original trimer activity
